{"source": "patent US20110027205A1", "about": "“USE OF MYRTLE EXTRACT AS DEPIGMENTING AGENT” (PIERRE FABRE DERMO-COSMETIQUE, priority 2008, published 2011)", "test_system": "melanocytes", "assay": "Activity on melanogenesis (melanin content of melanocytes, 450 nm)", "format": "cell-based", "settings": "Melanocyte, 72 hours, read-out: % inhibition of melanin synthesis", "procedure": "The melanocytes are left to incubate in a suitable culture medium at 37° C. for 72 hours in contact with the myrtle extract according to example 1, at different concentrations, and with hydroquinone, the reference substance. At the end of the incubation period, the melanocytes are collected and washed. The cells are then treated with a sodium solution to extract the melanin. The stained solutions are then assayed under 450 nm spectrophotometry for their melanin content using a calibration curve. A melanogenesis-inhibiting activity of the tested products will translate as a lower melanin content in the extracted melanocyte solutions. A prior cytotoxicity test is evidently performed on these same cells to verify the non-toxicity of the extracts at the tested concentrations.", "data": [{"compound": "Oc1ccc(O)cc1", "note": "[Hydroquinone]", "values": [{"measurement": "inhibition at 5 µM", "setting": "0.005 mM", "value": 35.7, "unit": "%"}, {"measurement": "inhibition at 10 µM", "setting": "0.01 mM", "value": 58, "unit": "%"}]}]}
